Paper PMC10478957 (Biochemistry, 2023)

Experiments:
BtNosP [1] = molecular target: BtNosP (Burkholderia thailandensis, UniProt Q2T7C0); assay: biochemical; type: binding
BtNosP [2] = molecular target: T1, BtNosP (Burkholderia thailandensis, UniProt Q2T7C0); type: binding
T1 sequence (Q2T7C0 1-386): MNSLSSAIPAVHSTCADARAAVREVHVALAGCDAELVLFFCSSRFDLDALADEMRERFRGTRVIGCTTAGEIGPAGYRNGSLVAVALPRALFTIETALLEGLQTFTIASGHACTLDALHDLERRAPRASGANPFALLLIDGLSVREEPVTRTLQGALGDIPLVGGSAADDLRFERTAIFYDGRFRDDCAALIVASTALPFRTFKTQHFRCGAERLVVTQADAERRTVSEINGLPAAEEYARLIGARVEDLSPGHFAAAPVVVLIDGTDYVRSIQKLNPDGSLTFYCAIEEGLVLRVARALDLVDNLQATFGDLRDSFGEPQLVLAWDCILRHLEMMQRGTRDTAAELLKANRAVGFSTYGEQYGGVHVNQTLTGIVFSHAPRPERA

Q: How did the Kd (BtNosP [1]) turn out when C=CC1=C(C)C2=Cc3c(C=C)c(C)c4[n]3[Fe]([Cl])[n]3c(c(C)c(CCC(=O)O)c3=CC3=NC(=C4)C(C)=C3CCC(=O)O)=CC1=N2 [hemin] was run?
A: 530 ± 120 nM

Q: With [N]=O [nitric oxide] as the compound, how does the “UV-vis spectroscopy of Fe(II)-NO complex; CO/dithionite trap NO dissociation rat” value (BtNosP [2]) read?
A: (1.73 ± 0.6) × 10^−4 s^−1
